{
  "source": "patent US20060122104A1",
  "about": "“Methods for in vitro expansion and transdifferentiation of human pancreatic acinar cells into insulin-producing cells” (priority 2002, published 2006)",
  "system": "primary human pancreatic cells",
  "assay": "Attachment and growth of primary pancreatic cells on ECM-coated surfaces (cell counting, MTS metabolic activity assay)",
  "assay_type": "cell-based",
  "details": "10^5 cells/cm^2, grown 8 days; FIG. 4A",
  "experimental": "The attachment of primary human pancreatic cells was evaluated by counting the number of attached cells vs. the number of cells initially seeded on a panel of ECM surfaces comprised of Collagen I (1 μg/cm^2), Fibronectin (3 μg/cm^2), Laminin (2 μg/cm^2), Vitronectin (1 μg/cm^2), Matrigel (1 μg/cm^2), Human ECM (1 μg/cm^2), or Poly-D -Lysine (3 μg/cm^2). In one condition, a mixture of Collagen IV, Laminin, and Fibronectin was utilized. […] Excess ECM solution was then removed and surfaces were rinsed twice in water. Just before seeding cells, the water was aspirated, then cells were seeded onto the ECM surface at a density of 1×10^5 cells/cm^2 in growth medium (PCM) composed of DMEM:HamsF12 mixture (1:1) with 4 mM glutamine, 1×ITS supplement (GIBCO 51500-056), 10% Fetal Calf Serum (Inactivated, Qualified, GIBC 26140-079), and 10 ng/ml Epidermal Growth Factor (EGF) (BD 4001). Cells were seeded onto tissue-culture polystyrene surface as a control. […] The metabolic activity of cells subjected to the various conditions was determined by an MTS assay. Viable cells were measured using the MTS assay (Promega CellTiter 96 Aqueous One Solution Cell Proliferation Assay), a colorimetric method for determining the number of viable cells in proliferation or cytotoxicity. […]",
  "data": [
    {"substance": "Laminin", "values": [
      {"measurement": "cell attachment and expansion on coated surface", "value": "suitable surface for cell attachment and expansion"}
    ]},
    {"substance": "Fibronectin", "values": [
      {"measurement": "cell attachment and expansion on coated surface", "value": "suitable surface for cell attachment and expansion"}
    ]}
  ]
}
